The test system of assay [1] is Human thioredoxin-1 (hTrx-1). Briefly: Thioredoxin native redox western blot. In kind it is cell-based. As to conditions: SUM159. The procedure: FIG. 7: Human thioredoxin-1 (hTrx-1) native redox western blot analysis of BSO, DTPP and AUR treated SUM159. Asynchronously growing cultures of SUM159 were plated and treated as described in FIG. 1. Cells were harvested and scraped in PBS at 4° C. Whole cell homogenates were used for native gel redox western blot analysis of […].
Thioredoxin Redox Western: The human thioredoxin-1 protein level was determined by Thioredoxin redox western. Approximately 2-3 million treated or untreated SUM159 cells were lysed in G-lysis buffer (50 mM Tris-HCl, pH 8.3, 3 mM EDTA, 6 M guanidine-HCl, 0.5% Triton X-100) containing 50 mM iodoacetic acid (pH 8.3). The lysate was incubated in the dark for thirty minutes. The lysates were then centrifuged in G-25 microspin columns (GE Healthcare). Protein was then quantified, from the eluent by performing a Bradford protein assay, as previously described (Bradford, M. M. A rapid and sensitive method for the quantitation of microgram quantities of protein utilizing the principle of protein-dye binding. Anal Biochem 72:248-254; 1976). Equal amounts of protein were then added to a 15% acrylamide native gel. The gel was then run at 100 V for approximately 1.5 h. The proteins contained in the gel were then transferred to a nitrocellulose membrane (BIORAD Labs), using a semi-dry transfer protocol. The nitrocellose membrane was then washed in PBST (Phosphate buffered saline with 0.1% Tween) before being incubated at 4 overnight with the primary antibody, 1:1000 goat anti-hTrx-1 (American Diagnostica, Inc.) in PBST with 2% BSA. […]
(Immunoblotting shows a protein as a band on a membrane.)

The test system of assay [2] is Sum159 xenograft tumors. Description: ALDH+ cells in Sum159 xenografts in vivo. Also on record: species or system nude mice. To be noted: 100 μM DTPP in drinking water 2 weeks; BSO 675 mg/kg i.p.; Au 2.7 mg/kg i.p. The procedure: FIGS. 1A-D: BSO, DTPP and AUR treated SUM159, MDA-MB231 and HMEC Clonogenic survival. In Panel A (SUM 159), B (MDA-MB231) and C(HMEC), 150,000 cells/dish SUM159 or MDA-MB231 and 300,000 cells/dish were plated in 60 mm tissue culture dishes. After 48 hours, cells were given fresh complete HMECs media and treated with 100 μM BSO+/1 μM DTPP for 24 hours. 500 nM AUR were added 15 mins before the trypsinization of cells for clonogenic survival assay. In panel A-C, The error bars represent mean±1 SD of n=1 treatment dishes done in 3 separate experiments where each treatment dish was used to prepare 6-10 replicate cloning dishes for analysis. *p<0.001 as compared to Control. […] Mice growing Sum159 xenograft tumors were treated with 100 μM DTPP in drinking water for 2 weeks followed by i.p. injections of BSO 675 mg/kg followed in 2 hrs with Au 2.7 mg/kg. The day following injections tumors were harvested, digested and stained for ALDH positive cells. Each bar represents an average of at least three tumors. Error bars are SEM. *p<0.05 vs. control.
To address this question, SUM159 were treated with these drugs as described in FIG. 1, and aldehyde dehydrogenase (ALDH) activity, a marker of cancer stem cells was examined by ALDEFLUOR assay. […]

Assay [3] has as its system SUM159 cells. Briefly: DHE oxidation (intracellular superoxide). It counts as cell-based, human. The procedure: FIG. 10: DHE oxidation of BSO,DTPP and AUR exposed SUM159 cells. Asynchronously growing cultures of SUM159 were plated and treated as described in FIG. 1. Monolayer cultures were harvested and trypsinized, washed once with PBS and labeled 40 minutes with 5 μM DHE (in 0.1% DMSO) in PBS containing 5 mM pyruvate at 37° C. Each sample was then analyzed for the Mean fluorescence Intensity (MFI) of 10,000 cells by flow cytometry. Samples were assayed in triplicate; mean±1 SD of 2 experiment containing treatment dishes per group (n=6). *p<0.001 as compared to Control.
Estimation of intracellular superoxide levels using Dihydroethidium (DHE) oxidation: Steady-state levels of superoxide were estimated using the fluorescent dyes, dihydroethidium (DHE) purchased from Molecular Probes (Eugene, Oreg.). Cells were plated and treated for as described earlier. On day 6, the cells were trypsinized and washed with 5 mM/L pyruvate containing PBS once then labeled with DHE ([…], in 0.1% DMSO, 40 min) at 37° C. After labeling, cells were kept on ice. Samples were analyzed using a FACScan flowcytometer (Becton Dickinson Immunocytometry System, INC., Mountain View, Calif.) (excitation 488 nm, emission 585 nm band-pass filter). The mean fluorescence intensity (MFI) of 10,000 cells was analyzed in each sample and corrected for autofluorescence from unlabeled cells. The MFI data was normalized to control levels.

With `CCCCS(=N)(=O)CCC(N)C(=O)O` [BSO, L-buthionine-[S,R]-sulfoximine, reference compound], the “ratio of oxidized thioredoxin to total thioredoxin, in words” value in assay [1] was “no ratio change”. For the same compound, in assay [2], the “effect on ALDH positive cells in xenografts, in words” value is recorded as “decrease of ALDH+cells”.

As for `CCCCCCCCCC[P+](c1ccccc1)(c1ccccc1)c1ccccc1` [DTPP, Decyl-Triphenylphosphonium], the “increase of DHE oxidation” value in assay [3] came out at 1.5 fold.

In the case of `CC[PH](CC)(CC)[Au][S][C@@H]1O[C@H](COC(C)=O)[C@@H](OC(C)=O)[C@H](OC(C)=O)[C@H]1OC(C)=O` [AUR, S-triethylphosphinegold(I)-2,3,4,6-tetra-O-acetyl-1-thio-β-D-glucopyranoside], the “increase of ratio of oxidized thioredoxin to total thioredoxin compared to control” value in assay [1] is recorded as “around 2 fold”. Moreover, the “increase of the ratio of oxidized Trx-1 to reduced Trx-1” value in assay [1] (15 min AUR) came to 2 fold. In assay [2], the “effect on ALDH positive cells in xenografts, in words” value is listed as “decrease of ALDH+cells”.

The values above are taken from patent US9801922B2, “Compositions and methods of treating cancer” (UNIVERSITY OF IOWA RESEARCH FOUNDATION, priority 2011, dated 2017).
